Source: patent publication US5021423A, “Mitomycin derivatives and intermediates therefor” (Kyowa Hakko Kogyo Kabushiki Kaisha, priority 1988, dated 1991)
Converted amounts (≈) assume the structure as drawn.

Assays:
[1] = tested on: Streptococcus faecium: Enterococcus faecium ATTC 10541; assay: Anti-bacterial activity, agar dilution method at pH 7.0 (SF); assay type: cell-based; details: pH 7, read-out: minimum growth inhibitory concentration, SF
From the text: (§1) In this table, the microorganisms are abbreviated as follows:
SF: Streptococcus faecium: Enterococcus faecium

[2] = tested on: Staphylococcus aureus ATCC 6538P; assay: Anti-bacterial activity, agar dilution method at pH 7.0 (SA); assay type: cell-based; details: ATCC6538P, read-out: minimum growth inhibitory concentration, SA
From the text: as §1
SA: Staphylococcus aureus ATCC 6538P

[3] = tested on: Proteus vulgaris ATCC 6897; assay: Anti-bacterial activity, agar dilution method at pH 7.0 (PV); assay type: cell-based; details: ATCC6897, read-out: minimum growth inhibitory concentration, PV
From the text: as §1
PV: Proteus vulgaris ATCC 6897

[4] = tested on: Klebsiella pneumoniae ATCC 10031; assay: Anti-bacterial activity, agar dilution method at pH 7.0 (KP); assay type: cell-based; details: ATCC10031, read-out: minimum growth inhibitory concentration, KP
From the text: as §1
KP: Klebsiella pneumoniae ATCC 10031

HeLa S3 cells = assay: Inhibition test against the growth of HeLa S3 cells; assay type: cell-based; details: Homo sapiens, 72 hours, neutral red, read-out: IC50 (growth inhibition by 50%)
Protocol: Inhibition test against the growth of HeLa S3 cells
Each 0.1 ml of MEM medium containing 10% foetal calf serum and 2 mM glutamine, which contained 3×10^4 HeLa S3 cells per ml, was put into each well of a 96 well microtitre plate. Without any pre-treatment, the cells were cultured overnight at a temperature of 37° C. in a CO2 incubator.
On each occasion, 0.05 ml of a test sample which had been suitably diluted was added to the well. After treating with the test compound for 72 hours, the supernatant was removed. After washing once with a PBS (-), a fresh medium (0.1 ml) was added to each well, followed by incubating at a temperature of 37° C. for 2 hours in the incubator.
After removal of the supernatant, 0.1 ml of a medium containing neutral red (0.02%) was added to each well. The cells were dyed by incubating at a temperature of 37° C. for one hour in the incubator. After removal of the supernatant, followed by washing once with a physiological solution of sodium chloride, the dyestuff was removed from each sample by extraction using a mixture of 0.001N hydrochloric acid and 30% ethanol. A microplate reader was used to measure the absorption at 550 nm. By comparing the absorption of untreated cells with the absorption of the cells treated with the test compound having a pre-determined concentration, a concentration of the test compound capable of inhibiting the growth of the cells by 50% was calculated and designated as IC50.

Sarcoma 180 solid tumour = assay: Effect against Sarcoma 180 solid tumour; assay type: in vivo, mice of ddy strain; details: Mus musculus, Sarcoma-180, iv, 168 h; male ddy mice, tail vein injection 24 hours after implantation; tumour volume 7 days after implantation; read-out: ED50 (dose reducing the volume of Sarcoma 180 solid tumours by 50%)
Protocol: (1) Effect aginast Sarcoma 180 solid tumour:
5×10^6 cells of Sarcoma 180 solid tumour cells were abdominally implanted into male mice of ddy strain. 7 days after this, ascites cells were sampled. The ascites cells were washed once with a sterilized physiological solution of sodium chloride and were used to prepare a cell suspension containing 5×10^7 cells per ml. 0.1 ml of the cell suspension was subcutaneously implanted into the right armpit of a male mouse (ddy strain; body weight 20±2 g). 24 hours after the implantation of the tumour cells, the test compound dissolved in a physiological solution of sodium chloride containing Tween 80, was injected into the tail vein of each mouse of a group consisting of 5 animals at a dose of 0.1-0.2 ml. The anti-tumour activity of the test sample was determined as follows:
7 days after the implantation, the major axis (a) and the minor axis (b) of the tumour were measured to calculate a value of "a×b^2 /2" which corresponds to the volume of the tumour. The anti-tumour activity was expressed by T/C viz. the ratio of the volume of the tumours (T) of the group of animals administered with the test compound to the corresponding volume of tumours (C) of the untreated animals.
(2) Determination of ED50 :
The term ED50 denotes the administered amount needed for reducing the volume of Sarcoma 180 solid tumours in the animals by 50% on the basis of the corresponding volume of Sarcoma 180 solid tumours in the untreated animals. On graph paper, the value T/C was indicated by an arithmetic scale on the longitudinal axis and the administered amount of test compound was indicated by a logarithmic scale on the lateral axis. A straight line indicating the relationship between the dose and T/C was determined by the least squares method from which a dose corresponding to T/C of 0.5 was obtained.

Acute toxicity = details: mouse, in vivo; ddy mice, single intravenous administration, observed for 14 days, Behrens Korber's method
Protocol: Each animal of the test group consisting of 5 ddy mice was once administered intravenously with a test compound. […] The LD50 was determined by the Behrens Korber's method.

In the case of `CCCCCCCCCCCC(=O)OC1=C(C)C2(OCCO2)C(=O)C2=C1N1C[C@@H]3N[C@@H]3[C@]1(OC)[C@@H]2COC(N)=O` [Compound 6], the MIC [1] is reported as 2.5 µg/mL (≈ 4.45 µM), the MIC [2] is reported as 0.63 µg/mL (≈ 1.12 µM) and the MIC [3] is reported as 2.5 µg/mL (≈ 4.45 µM). It also gave an MIC [4] of 5 µg/mL (≈ 8.9 µM), an IC50 (HeLa S3 cells) of 0.0019 µg/mL (≈ 0.00338 µM) and an ED50 (Sarcoma 180 solid tumour) of 1.2 mg/kg. The LD50 at 336 h (Acute toxicity) was 3 mg/kg.
In the case of `CO[C@@]12[C@H](COC(N)=O)C3=C(C(OC(C)=O)=C(C)C4(OCCO4)C3=O)N1C[C@@H]1N[C@@H]12` [Compound 2], the MIC [1] is reported as 1.3 µg/mL (≈ 3.08 µM), the MIC [2] is reported as 0.63 µg/mL (≈ 1.49 µM) and the MIC [3] is reported as 1.3 µg/mL (≈ 3.08 µM). For the same compound, the MIC [4] was 0.16 µg/mL (≈ 0.38 µM) and the IC50 (HeLa S3 cells) was 0.007 µg/mL (≈ 0.0166 µM).
With `CO[C@@]12[C@H](COC(N)=O)C3=C(C(OC(=O)C(C)(C)C)=C(C)C4(OCCO4)C3=O)N1C[C@@H]1N[C@@H]12` [Compound 12] the IC50 (HeLa S3 cells) was 0.53 µg/mL (≈ 1.14 µM).
For `COC1=C(C)C2(OCCO2)C(=O)C2=C1N1C[C@@H]3N[C@@H]3[C@]1(OC)[C@@H]2COC(N)=O` [Compound 7], the MIC [1] was 10 µg/mL (≈ 25.4 µM), the MIC [2] was 5 µg/mL (≈ 12.7 µM) and the MIC [3] was 10 µg/mL (≈ 25.4 µM). It also gave an MIC [4] of 2.5 µg/mL (≈ 6.35 µM) and an IC50 (HeLa S3 cells) of 0.085 µg/mL (≈ 0.216 µM).
Work on `CO[C@@]12[C@H](COC(N)=O)C3=C(C(OC(=O)c4ccccc4)=C(C)C4(OCCO4)C3=O)N1C[C@@H]1N[C@@H]12` [Compound 5] yielded an MIC [1] of 1.3 µg/mL (≈ 2.69 µM), an MIC [2] of 0.31 µg/mL (≈ 0.641 µM) and an MIC [3] of 0.63 µg/mL (≈ 1.3 µM). The MIC [4] was 1.3 µg/mL (≈ 2.69 µM) and the IC50 (HeLa S3 cells) was 0.013 µg/mL (≈ 0.0269 µM).
For `CCCCC/C=C\C/C=C\CCCCCCCC(=O)OC1=C(C)C2(OCCO2)C(=O)C2=C1N1C[C@@H]3N[C@@H]3[C@]1(OC)[C@@H]2COC(N)=O` [Compound 10], the IC50 (HeLa S3 cells) was 0.0026 µg/mL (≈ 0.00405 µM), the ED50 (Sarcoma 180 solid tumour) was 1.9 mg/kg and the LD50 at 336 h (Acute toxicity) was 4.2 mg/kg.
Compound `CCCCCCCC(=O)OC1=C(C)C2(OCCO2)C(=O)C2=C1N1C[C@@H]3N[C@@H]3[C@]1(OC)[C@@H]2COC(N)=O` [Compound 11] has an IC50 (HeLa S3 cells) of 0.01 µg/mL (≈ 0.0198 µM), an ED50 (Sarcoma 180 solid tumour) of 0.77 mg/kg and an LD50 at 336 h (Acute toxicity) of 3.1 mg/kg.
With `CC(=O)OC1=C(C)C2(OCCO2)C(=O)C2=C1N1C[C@H]3[C@H](N3C)[C@]1(O)[C@H]2COC(N)=O` (some centres unmarked) [Compound 3] the MIC [1] was 50 µg/mL (≈ 119 µM), the MIC [2] was 13 µg/mL (≈ 30.8 µM) and the MIC [3] was 13 µg/mL (≈ 30.8 µM). The MIC [4] was 6.3 µg/mL (≈ 14.9 µM), the ED50 (Sarcoma 180 solid tumour) was 9.9 mg/kg and the LD50 at 336 h (Acute toxicity) was 11.3 mg/kg.
